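48-hour exposure; five concentrations; linearly interpolated endpoints. GI50 = concentration required for 50% inhibition of growth.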 The source made the active and inactive calls. No stated cut-off is given here; in the data, active = GI50 up to about 1.1 µM and inactive = higher.
Assays:
Test in all cases: NCI anticancer screen, dose series, 48 h
OVCAR-5 = test system: OVCAR-5
OVCAR-8 = test system: OVCAR-8
SK-MEL-28 = test system: SK-MEL-28
HL-60 = test system: HL-60
RXF 393 = test system: RXF 393
HCC 2998 = test system: HCC 2998
SNB-19 = test system: SNB-19
RPMI-8226 = test system: RPMI-8226
Hs-578T = test system: Hs-578T
KM12 = test system: KM12
HCT-116 = test system: HCT-116
LOX IMVI = test system: LOX IMVI
SF-295 = test system: SF-295
CCRF-CEM = test system: CCRF-CEM
SK-MEL-5 = test system: SK-MEL-5
NCI-H522 = test system: NCI-H522
PC-3 = test system: PC-3
MOLT-4 = test system: MOLT-4
SK-OV-3 = test system: SK-OV-3
SR = test system: SR
UO-31 = test system: UO-31
M14 = test system: M14
SN12C = test system: SN12C
EKVX = test system: EKVX
CAKI-1 = test system: CAKI-1
HOP-92 = test system: HOP-92
MDA-MB-435 = test system: MDA-MB-435
NCI-H460 = test system: NCI-H460
HT-29 = test system: HT-29
MCF7 = test system: MCF7
BT-549 = test system: BT-549
U-251 = test system: U-251
SK-MEL-2 = test system: SK-MEL-2
786-0 = test system: 786-0
HCT-15 = test system: HCT-15
UACC-257 = test system: UACC-257
SNB-75 = test system: SNB-75
COLO 205 = test system: COLO 205
OVCAR-4 = test system: OVCAR-4
ACHN = test system: ACHN
T47D = test system: T47D
A549 = test system: A549
MDA-N = test system: MDA-N
MDA-MB-231 = test system: MDA-MB-231
K562 = test system: K562
IGROV-1 = test system: IGROV-1
UACC-62 = test system: UACC-62
Malme-3M = test system: Malme-3M
SW-620 = test system: SW-620
NCI-H23 = test system: NCI-H23
NCI-H226 = test system: NCI-H226
OVCAR-3 = test system: OVCAR-3
HOP-62 = test system: HOP-62
NCI/ADR-RES = test system: NCI/ADR-RES
SF-268 = test system: SF-268
DU-145 = test system: DU-145
TK-10 = test system: TK-10
A498 = test system: A498
SF-539 = test system: SF-539

Q: How did the GI50 (OVCAR-5) turn out when `O=C1[C@@H]2[C@@H](CN3CN(c4ccccc4)N=C(c4ccccc4)[C@@]23c2ccccc2)C(=O)N1c1ccccc1` was run?
A: 4.7 µM (inactive)

Q: And the GI50 (OVCAR-8)?
A: 5.85 µM (inactive)

Q: What about the GI50 (SK-MEL-28) of the same compound?
A: 11.3 µM (inactive)

Q: What about the GI50 (HL-60) of the same compound?
A: 2.25 µM (inactive)

Q: What about the GI50 (RXF 393) of the same compound?
A: 2.95 µM (inactive)

Q: What about the GI50 (HCC 2998) of the same compound?
A: 25.2 µM (inactive)

Q: What about the GI50 (SNB-19) of the same compound?
A: 16.7 µM (inactive)

Q: What about the GI50 (RPMI-8226) of the same compound?
A: 1.61 µM (inactive)

Q: What about the GI50 (Hs-578T) of the same compound?
A: 20.3 µM (inactive)

Q: What about the GI50 (KM12) of the same compound?
A: 14.3 µM (inactive)

Q: And the GI50 (HCT-116)?
A: 5.07 µM (inactive)

Q: What about the GI50 (LOX IMVI) of the same compound?
A: 1.68 µM (inactive)

Q: And the GI50 (SF-295)?
A: 15.1 µM (inactive)

Q: What about the GI50 (CCRF-CEM) of the same compound?
A: 1.45 µM (inactive)

Q: And the GI50 (SK-MEL-5)?
A: 16.9 µM (inactive)

Q: What about the GI50 (NCI-H522) of the same compound?
A: 0.547 µM (active)

Q: And the GI50 (PC-3)?
A: 6.31 µM (inactive)

Q: What about the GI50 (MOLT-4) of the same compound?
A: 2.84 µM (inactive)

Q: What about the GI50 (SK-OV-3) of the same compound?
A: 14 µM (inactive)

Q: What about the GI50 (SR) of the same compound?
A: 2.61 µM (inactive)

Q: What about the GI50 (UO-31) of the same compound?
A: 1.73 µM (inactive)

Q: What about the GI50 (M14) of the same compound?
A: 2.94 µM (inactive)

Q: What about the GI50 (SN12C) of the same compound?
A: 6.58 µM (inactive)

Q: And the GI50 (EKVX)?
A: 4.89 µM (inactive)

Q: What about the GI50 (CAKI-1) of the same compound?
A: 0.863 µM (active)

Q: And the GI50 (HOP-92)?
A: 1.79 µM (inactive)

Q: And the GI50 (MDA-MB-435)?
A: 5.68 µM (inactive)

Q: And the GI50 (NCI-H460)?
A: 19.8 µM (inactive)

Q: What about the GI50 (HT-29) of the same compound?
A: 2.36 µM (inactive)

Q: And the GI50 (MCF7)?
A: 1.94 µM (inactive)

Q: What about the GI50 (BT-549) of the same compound?
A: 3.61 µM (inactive)

Q: And the GI50 (U-251)?
A: 8.99 µM (inactive)

Q: And the GI50 (SK-MEL-2)?
A: 14.9 µM (inactive)

Q: And the GI50 (786-0)?
A: 1.88 µM (inactive)

Q: What about the GI50 (HCT-15) of the same compound?
A: 2.3 µM

Q: And the GI50 (UACC-257)?
A: 12 µM (inactive)

Q: What about the GI50 (SNB-75) of the same compound?
A: 16 µM (inactive)

Q: And the GI50 (COLO 205)?
A: 1.91 µM (inactive)

Q: And the GI50 (OVCAR-4)?
A: 2.61 µM (inactive)

Q: And the GI50 (ACHN)?
A: 1.83 µM (inactive)

Q: What about the GI50 (T47D) of the same compound?
A: 2.58 µM (inactive)

Q: What about the GI50 (A549) of the same compound?
A: 6.11 µM (inactive)

Q: And the GI50 (MDA-N)?
A: 5.19 µM (inactive)

Q: And the GI50 (MDA-MB-231)?
A: 4.54 µM (inactive)

Q: What about the GI50 (K562) of the same compound?
A: 2.69 µM (inactive)

Q: What about the GI50 (IGROV-1) of the same compound?
A: 13.8 µM (inactive)

Q: And the GI50 (UACC-62)?
A: 5.98 µM (inactive)

Q: And the GI50 (Malme-3M)?
A: 1.82 µM (inactive)

Q: What about the GI50 (SW-620) of the same compound?
A: 2 µM (inactive)

Q: And the GI50 (NCI-H23)?
A: 8.69 µM (inactive)

Q: And the GI50 (NCI-H226)?
A: 0.977 µM (active)

Q: And the GI50 (OVCAR-3)?
A: 7.73 µM (inactive)

Q: And the GI50 (HOP-62)?
A: 14 µM (inactive)

Q: And the GI50 (NCI/ADR-RES)?
A: 17.5 µM (inactive)

Q: What about the GI50 (SF-268) of the same compound?
A: 18.8 µM (inactive)

Q: And the GI50 (DU-145)?
A: 7.14 µM (inactive)

Q: And the GI50 (TK-10)?
A: 1.48 µM (inactive)

Q: And the GI50 (A498)?
A: 18.4 µM (inactive)

Q: What does the source list for `Oc1cc(Cl)cc2cc(Br)cnc12`?
A: GI50 (OVCAR-5): 8.95 µM (inactive); GI50 (OVCAR-8): 2.3 µM (inactive); GI50 (SK-MEL-28): 7.16 µM (inactive); GI50 (HL-60): 0.258 µM (active); GI50 (RXF 393): 2.29 µM (inactive); GI50 (HCC 2998): 15.6 µM (inactive); GI50 (SNB-19): 4.1 µM (inactive); GI50 (RPMI-8226): 1.42 µM (inactive); GI50 (Hs-578T): 4.62 µM (inactive); GI50 (KM12): 4.69 µM (inactive); GI50 (HCT-116): 1.09 µM (active); GI50 (LOX IMVI): 0.463 µM (active); GI50 (SF-295): 2.96 µM (inactive); GI50 (CCRF-CEM): 1.9 µM (inactive); GI50 (SK-MEL-5): 1.53 µM (inactive); GI50 (NCI-H522): 2.74 µM (inactive); GI50 (PC-3): 2.57 µM (inactive); GI50 (MOLT-4): 2.04 µM (inactive); GI50 (SK-OV-3): > 59.8 µM (inactive); GI50 (SR): 1.42 µM (inactive); GI50 (UO-31): 3.94 µM (inactive); GI50 (M14): 1.56 µM (inactive); GI50 (SF-539): 2.18 µM (inactive); GI50 (SN12C): 2.23 µM (inactive); GI50 (EKVX): 4.14 µM (inactive); GI50 (CAKI-1): 6.79 µM (inactive); GI50 (HOP-92): 4.69 µM (inactive); GI50 (MDA-MB-435): 4.65 µM (inactive); GI50 (NCI-H460): 1.99 µM (inactive); GI50 (HT-29): 11.3 µM (inactive); GI50 (MCF7): 3.1 µM (inactive); GI50 (BT-549): 1.53 µM (inactive); GI50 (U-251): 2.07 µM (inactive); GI50 (786-0): 9.86 µM (inactive); GI50 (HCT-15): 0.771 µM; GI50 (UACC-257): 2.63 µM (inactive); GI50 (SNB-75): 13.6 µM (inactive); GI50 (COLO 205): 41.6 µM (inactive); GI50 (OVCAR-4): 3.49 µM (inactive); GI50 (ACHN): 1.88 µM (inactive); GI50 (T47D): 7.28 µM (inactive); GI50 (A549): 3.27 µM (inactive); GI50 (MDA-N): 2.3 µM (inactive); GI50 (MDA-MB-231): 2.56 µM (inactive); GI50 (K562): 1.69 µM (inactive); GI50 (IGROV-1): 2.92 µM (inactive); GI50 (UACC-62): 6.27 µM (inactive); GI50 (Malme-3M): 2.23 µM (inactive); GI50 (SW-620): 3.96 µM (inactive); GI50 (NCI-H23): 4.39 µM (inactive); GI50 (NCI-H226): 22.6 µM (inactive); GI50 (OVCAR-3): 1.52 µM (inactive); GI50 (HOP-62): 3.4 µM (inactive); GI50 (NCI/ADR-RES): 2.06 µM (inactive); GI50 (SF-268): 1.59 µM (inactive); GI50 (DU-145): 5.14 µM (inactive); GI50 (TK-10): 41.3 µM (inactive); GI50 (A498): 27.7 µM (inactive)
